Assay results from PubChem BioAssay (NCI).
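Five compound concentrations were applied to cells in 96-well plates for 48 hours; endpoints were derived by simple linear interpolation of the resulting dose-response curve. TGI denotes the concentration required for complete inhibition of growth.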

What was measured:
Test in all cases: inhibition of tumour cell growth, NCI panel, 48 h
A549 NSCLC = test system: A549 NSCLC
ACHN renal = test system: ACHN renal
HCC-2998 colon = test system: HCC-2998 colon
M14 melanoma = test system: M14 melanoma
MALME-3M melanoma = test system: MALME-3M melanoma
MDA-MB-231 breast = test system: MDA-MB-231 breast
PC-3 prostate = test system: PC-3 prostate
SF-295 CNS = test system: SF-295 CNS
SN12C renal = test system: SN12C renal
SNB-19 CNS = test system: SNB-19 CNS
T-47D breast = test system: T-47D breast

Compound	TGI (A549 NSCLC)	TGI (ACHN renal)	TGI (HCC-2998 colon)	TGI (M14 melanoma)	TGI (MALME-3M melanoma)	TGI (MDA-MB-231 breast)	TGI (PC-3 prostate)	TGI (SF-295 CNS)	TGI (SN12C renal)	TGI (SNB-19 CNS)	TGI (T-47D breast)
CCOC(=O)/C=C/C(Br)=C(Br)/C=C/C(=O)OCC	56 µM	25.8 µM	49 µM	30.3 µM	17.5 µM	31.1 µM	28 µM	28.8 µM	25.9 µM	33.6 µM	> 64.5 µM
COc1cc(OC)cc(-c2nc3ccccc3c(=O)[nH]2)c1	> 100 µM	> 100 µM	> 100 µM	> 100 µM	> 100 µM	> 100 µM	> 100 µM	> 100 µM	> 100 µM	> 100 µM	> 100 µM
Cc1cc(=O)oc2c(CN(CCCl)CCCl)c(O)ccc12	> 100 µM	> 100 µM	> 100 µM	> 100 µM	> 100 µM	> 100 µM	> 100 µM	> 100 µM	> 100 µM	> 100 µM	> 100 µM
CC(=O)O[C@H]1CC[C@]2(C=O)[C@H]3CC[C@]4(C)[C@@H](C5=CC(=O)OC5)CC[C@]4(O)[C@@H]3CC[C@]2(O)C1	0.253 µM	0.557 µM	1.33 µM	1.22 µM	0.566 µM	3.14 µM	1.38 µM	0.853 µM	1.53 µM	2.24 µM	2.68 µM
NC(=O)c1nnc2c(F)cccc2c1N	> 100 µM	> 100 µM	> 100 µM	> 100 µM	> 100 µM	> 100 µM	> 100 µM	> 100 µM	> 100 µM	> 100 µM	> 100 µM
CC(=O)c1nc(C#N)c(N)o1	> 100 µM	> 100 µM	> 100 µM	> 100 µM	> 100 µM	> 100 µM	> 100 µM	> 100 µM	> 100 µM	> 100 µM	> 100 µM
CSC(=N/N=C(\C)c1ccc(S(=O)(=O)N(C)c2ccccc2)cc1)SC	> 100 µM	> 100 µM	> 100 µM	> 100 µM	> 100 µM	> 100 µM	> 100 µM	> 100 µM	> 100 µM	> 100 µM	> 100 µM
CC(NC1=NCCO1)c1ccco1 (stereo not drawn)	> 100 µM	> 100 µM	> 100 µM	> 100 µM	> 100 µM	> 100 µM	> 100 µM	> 100 µM	> 100 µM	> 100 µM	> 100 µM
CN1CCN(C2CC(=O)c3c(Cl)sc(Cl)c32)CC1 (stereo not drawn)	> 52.9 µM	36.6 µM	24.6 µM	20.7 µM	> 50.3 µM	48 µM	> 100 µM	> 31.6 µM	30 µM	> 100 µM	> 45.9 µM
Nc1nn2cc(-c3ccccc3)[n+](CC(=O)c3ccccc3)c2s1	> 100 µM	> 100 µM	31.7 µM	40.6 µM	27.3 µM	> 100 µM	> 100 µM	> 100 µM	> 100 µM	52.9 µM	55 µM
CC(C)c1cc(C(C)C)c(B(c2ccccc2)c2ccccc2)c(C(C)C)c1Br	> 100 µM	> 100 µM	> 100 µM	> 100 µM	> 100 µM	> 100 µM	> 100 µM	> 100 µM	> 100 µM	> 100 µM	> 100 µM
CC(C)(CO)Nc1c(O)c2c(c(O)c1Cl)C(=O)C=CC2=O	3.61 µM	3.08 µM	2.75 µM	2.26 µM	3.33 µM	3.15 µM	3.41 µM	3.21 µM	2.91 µM	3.5 µM	4.18 µM
NC(=O)c1ccc(S(=O)(=NS(=O)(=O)c2ccccc2)c2ccc(C(N)=O)cc2)cc1	> 100 µM	> 100 µM	> 100 µM	> 100 µM	> 100 µM	> 100 µM	> 100 µM	> 100 µM	> 100 µM	> 100 µM	> 100 µM
Cn1c(-c2cccs2)cc(-c2ccsc2)c1-c1ccsc1	> 100 µM	> 100 µM	> 100 µM	> 100 µM	> 100 µM	> 100 µM	> 100 µM	> 100 µM	> 100 µM	> 100 µM	59.6 µM
C/C(=N/NC(=O)c1ccccc1Nc1ccccc1C(=O)N/N=C(\C)c1ccc(C)cc1)c1ccc(C)cc1	> 100 µM	> 100 µM	> 100 µM	> 100 µM	> 100 µM	> 100 µM	> 100 µM	> 100 µM	> 100 µM	> 100 µM	> 100 µM
Cc1cnc2[nH]c(-c3sccc3C)cc(=O)c2c1	> 100 µM	> 100 µM	96.8 µM	> 33.4 µM	> 100 µM	> 100 µM	> 100 µM	> 100 µM	> 100 µM	> 40.8 µM	> 100 µM
COc1ccc(C2=C(N)c3cc(OC)ccc3C2=O)cc1	> 100 µM	> 100 µM	> 100 µM	> 100 µM	> 100 µM	> 100 µM	> 100 µM	> 100 µM	> 100 µM	> 100 µM	> 100 µM
C/C(=N\Nc1nc2ccccc2n1C)c1ccncn1	> 32 µM	30.9 µM	> 100 µM	0.44 µM	> 100 µM	> 76.6 µM	> 100 µM	> 100 µM	> 100 µM	> 100 µM	> 100 µM
CC1C/C(=C\c2ccc(O)c(O)c2)C(=O)/C(=C/c2ccc(O)c(O)c2)C1 (stereo not drawn)	32.8 µM	21.6 µM	35.1 µM	–	25.1 µM	43.4 µM	29.9 µM	27.7 µM	20.4 µM	22.5 µM	27.8 µM
